Results on nine compounds are retold here after ChEMBL document CHEMBL3120117, “Synthesis and antitumor activity evaluation of chrysin derivatives” (Eur J Med Chem, 2014).

The test system of assay [1] is H22. Nature of the assay: Cytotoxicity against mouse H22 cells assessed as growth inhibition by MTT assay. It counts as functional, cell-based.
In assay [2] the test system is H22. Nature of the assay: Cell cycle arrest in mouse H22 cells assessed as accumulation at S phase at 1 mmol/l after 24 hrs by propidium iodide staining based flow cytometry (reference value: 70.21 +/-0.38%). The assay is classed as functional.
For assay [3], the system named is H22. As to the kind of experiment: Cell cycle arrest in mouse H22 cells assessed as accumulation at G2/M phase at 1 mmol/l after 24 hrs by propidium iodide staining based flow cytometry (reference value: 15.42 +/-0.33%). It counts as functional.
The test system of assay [4] is H22. Nature of the assay: Cell cycle arrest in mouse H22 cells assessed as accumulation at G1 phase at 1 mmol/l after 24 hrs by propidium iodide staining based flow cytometry (reference value: 14.38 +/-0.54%). The assay is classed as functional.
Assay [5] deals with H22. Nature of the assay: Cytotoxicity against mouse H22 cells assessed as growth inhibition by MTT assay relative to chrysin. It counts as functional.

pIC50: −log10 of the molar value.

With `CCOC(=O)COc1cc(OCC(=O)OCC)c2c(=O)cc(-c3ccccc3)oc2c1`, in the assay with H22 [1], the pIC50 is 2.39. As to `O=C(Oc1cc(O)c2c(=O)cc(-c3ccccc3)oc2c1)c1ccccc1`, the pIC50 with H22 [1] was 2.77. For `O=C(Oc1cc(OC(=O)c2ccccc2)c2c(=O)cc(-c3ccccc3)oc2c1)c1ccccc1`, the negative-log IC50 (pIC50) with H22 [1] was 2.44. On the same count and under the same terms, the value for `CCOC(=O)COc1cc(OC(=O)c2ccccc2)cc2oc(-c3ccccc3)cc(=O)c12` was 2.49. For the compound `O=C(O)COc1cc(O)cc2oc(-c3ccccc3)cc(=O)c12`, the pIC50 in the assay on H22 [1] was 2.61. On the same count and under the same terms, as for `CC(=O)Oc1cc(O)c2c(=O)cc(-c3ccccc3)oc2c1`, the figure is 2.37. For the compound `CC(=O)Oc1cc(OC(C)=O)c2c(=O)cc(-c3ccccc3)oc2c1` [CHRYSIN DIACETATE], the figures for the Activity with H22 [2], in the assay on H22 [3] and with H22 [4] were 57.44%, 36.34% and 6.22%, respectively. In addition, the pIC50 with H22 [1] was 3.85. Moreover, the “growth inhibition (GI)” value in the assay with H22 [5] is given as 91.56%. Turning to `O=c1cc(-c2ccccc2)oc2cc(O)cc(O)c12` [CHRYSIN], the Activity in the assay on H22 [2] amounted to 69.91%; in the assay with H22 [3] it was 17.13%; in the assay with H22 [4], 12.97%. The pIC50 in the assay on H22 [1] is 2.78.

For `O=C(O)COc1cc(OCC(=O)O)c2c(=O)cc(-c3ccccc3)oc2c1` [FLAVODIC ACID], the pIC50 in the assay on H22 [1] was 2.51.
